Measured values from PMC6366411, “Novel 2-indolinones containing a sulfonamide moiety as selective inhibitors of candida β-carbonic anhydrase enzyme” (Journal of Enzyme Inhibition and Medicinal Chemistry, 2019).

Each compound was assayed against T1, CgNce103 (Nakaseomyces glabratus, UniProt Q6FTL6) (assay: stopped-flow CO2 hydration assay).
T1 construct: gene NCE103; enzyme preparation, host and tags not described
T1 sequence (Q6FTL6 1-219): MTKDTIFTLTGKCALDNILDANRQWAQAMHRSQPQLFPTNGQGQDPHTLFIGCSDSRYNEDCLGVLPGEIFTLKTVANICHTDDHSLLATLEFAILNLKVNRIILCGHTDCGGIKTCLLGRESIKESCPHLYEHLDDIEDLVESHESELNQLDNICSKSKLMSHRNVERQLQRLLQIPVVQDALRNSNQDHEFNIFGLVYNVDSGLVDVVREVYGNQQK
Type: biochemical
Work on NS(=O)(=O)c1ccc(NC(=S)N/N=C2\C(=O)Nc3ccccc32)cc1 [4a, 1H-indole-2,3-dione 3-[N-(4-sulfamoylphenyl)thiosemicarbazone], R = H] yielded a Ki of 63.9 nM.
Cc1ccc2c(c1)/C(=N/NC(=S)Nc1ccc(S(N)(=O)=O)cc1)C(=O)N2 [4b, 1H-indole-2,3-dione 3-[N-(4-sulfamoylphenyl)thiosemicarbazone], R = 5-CH3] showed a Ki of 54 nM.
In the case of NS(=O)(=O)c1ccc(NC(=S)N/N=C2\C(=O)Nc3c(Br)cc(Br)cc32)cc1 [4m, 1H-indole-2,3-dione 3-[N-(4-sulfamoylphenyl)thiosemicarbazone], R = 5,7-diBr], the Ki is reported as 46.6 nM.
NS(=O)(=O)c1ccc(NC(=S)N/N=C2\C(=O)Nc3ccc(Br)cc32)cc1 [4f, 1H-indole-2,3-dione 3-[N-(4-sulfamoylphenyl)thiosemicarbazone], R = 5-Br] gave a Ki of 51.6 nM.
NS(=O)(=O)c1ccc(NC(=S)N/N=C2\C(=O)Nc3ccc([N+](=O)[O-])cc32)cc1 [4i, 1H-indole-2,3-dione 3-[N-(4-sulfamoylphenyl)thiosemicarbazone], R = 5-NO2] was tested, and the Ki was 42.1 nM.
Work on NS(=O)(=O)c1ccc(NC(=S)N/N=C2\C(=O)Nc3ccc(OC(F)(F)F)cc32)cc1 [4c, 1H-indole-2,3-dione 3-[N-(4-sulfamoylphenyl)thiosemicarbazone], R = 5-OCF3] yielded a Ki of 53.7 nM.
NS(=O)(=O)c1ccc(NC(=S)N/N=C2\C(=O)Nc3ccc(F)cc32)cc1 [4d, 1H-indole-2,3-dione 3-[N-(4-sulfamoylphenyl)thiosemicarbazone], R = 5-F] showed a Ki of 34.7 nM.
For NS(=O)(=O)c1ccc(NC(=S)N/N=C2\C(=O)Nc3c(F)cccc32)cc1 [4j, 1H-indole-2,3-dione 3-[N-(4-sulfamoylphenyl)thiosemicarbazone], R = 7-F], the Ki was 15 nM.
NS(=O)(=O)c1ccc(NC(=S)N/N=C2\C(=O)Nc3c(Cl)cccc32)cc1 [4k, 1H-indole-2,3-dione 3-[N-(4-sulfamoylphenyl)thiosemicarbazone], R = 7-Cl] was tested, and the Ki was 12.8 nM.
Work on NS(=O)(=O)c1ccc(NC(=S)N/N=C2\C(=O)Nc3ccc(I)cc32)cc1 [4g, 1H-indole-2,3-dione 3-[N-(4-sulfamoylphenyl)thiosemicarbazone], R = 5-I] yielded a Ki of 19.8 nM.
For NS(=O)(=O)c1ccc(NC(=S)N/N=C2\C(=O)Nc3c(Cl)cc(Cl)cc32)cc1 [4l, 1H-indole-2,3-dione 3-[N-(4-sulfamoylphenyl)thiosemicarbazone], R = 5,7-diCl], the Ki was 6.4 nM.
NS(=O)(=O)c1ccc(NC(=S)N/N=C2\C(=O)Nc3ccc(Cl)cc32)cc1 [4e, 1H-indole-2,3-dione 3-[N-(4-sulfamoylphenyl)thiosemicarbazone], R = 5-Cl] was tested, and the Ki was 41.3 nM.
Compound NS(=O)(=O)c1ccc(NC(=S)N/N=C2\C(=O)Nc3ccc(S(=O)(=O)O)cc32)cc1 [4h, 1H-indole-2,3-dione 3-[N-(4-sulfamoylphenyl)thiosemicarbazone], R = 5-SO3Na] has a Ki of 19.8 nM.
